Earlier results in patent publication US20090118350A1, “Biomarkers for Identifying Efficacy of Tegaserod in Patients with Chronic Constipation” (priority 2005, published 2009).

Test system: chronic constipation patients
Details: chronic constipation patients across North and South America; Johanson et al. 2004; cited from earlier work

[H]/N=C(/NCCCCC)N/N=C/c1c[nH]c2ccc(OC)cc12 [tegaserod, Tegaserod]
response rate: 43%
